Assay results from the supplement of paper PMC6045584.
± gives the standard deviation of the averaged measurements.

Key:
ABIRATERONE = compound: C[C@]12CC[C@H](O)CC1=CC[C@@H]1[C@@H]2CC[C@]2(C)C(c3cccnc3)=CC[C@@H]12 [ABIRATERONE]; experiment: surviving fraction relative to DMSO-only wells; higher = less growth inhibition; settings: exposure time: 5 days
In short: (§1)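 Tumour cell lines were seeded in log phase at 250–500 cells per well into 384-well plates. Starting 24 hours later, inhibitors were present continuously for five days at 0.5, 1, 5, 10, 50, 100, 500 and 1000 nM. Surviving fraction, from CellTiter-Glo luminescence, is normalised to the median of DMSO-only wells. Three screens per line were required, with replicate Pearson r >0.7 and median Z' >0.3 for a line to be kept.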

SOTRASTAURIN/AEB071 = compound: CN1CCN(c2nc(C3=C(c4c[nH]c5ccccc45)C(=O)NC3=O)c3ccccc3n2)CC1 [SOTRASTAURIN/AEB071]; experiment: as above; settings: exposure time: 5 days
In short: as §1

Row | Test System | surviving fraction (ABIRATERONE; 0.5 nM) | surviving fraction (ABIRATERONE; 1 nM) | surviving fraction (ABIRATERONE; 5 nM) | surviving fraction (ABIRATERONE; 10 nM) | surviving fraction (ABIRATERONE; 50 nM) | surviving fraction (ABIRATERONE; 100 nM) | surviving fraction (ABIRATERONE; 500 nM) | surviving fraction (ABIRATERONE; 1000 nM) | surviving fraction (SOTRASTAURIN/AEB071; 0.5 nM) | surviving fraction (SOTRASTAURIN/AEB071; 1 nM) | surviving fraction (SOTRASTAURIN/AEB071; 5 nM) | surviving fraction (SOTRASTAURIN/AEB071; 10 nM) | surviving fraction (SOTRASTAURIN/AEB071; 50 nM) | surviving fraction (SOTRASTAURIN/AEB071; 100 nM) | surviving fraction (SOTRASTAURIN/AEB071; 500 nM) | surviving fraction (SOTRASTAURIN/AEB071; 1000 nM)
1 | DU4475 BREAST | 0.872 ± 0.039 | 1.02 ± 0.19 | 0.991 ± 0.14 | 0.983 ± 0.12 | 0.989 ± 0.15 | 0.917 ± 0.32 | 0.998 ± 0.23 | 0.938 ± 0.34 | 1.02 ± 0.16 | 1.2 ± 0.081 | 1.05 ± 0.038 | 0.986 ± 0.027 | 0.989 ± 0.068 | 1.08 ± 0.068 | 0.901 ± 0.24 | 0.844 ± 0.038
2 | H23 LUNG | 1.07 ± 0.058 | 1.05 ± 0.062 | 1.06 ± 0.056 | 1.07 ± 0.049 | 1.1 ± 0.063 | 1.16 ± 0.032 | 1.17 ± 0.031 | 1.16 ± 0.072 | 1.03 ± 0.015 | 1.09 ± 0.046 | 1.07 ± 0.045 | 1.03 ± 0.016 | 1.1 ± 0.076 | 1.11 ± 0.092 | 1.14 ± 0.037 | 1.116 ± 0.011
3 | HCC78 LUNG | 0.94 ± 0.12 | 0.911 ± 0.058 | 1.09 ± 0.15 | 1.06 ± 0.23 | 1.12 ± 0.16 | 1.15 ± 0.25 | 0.936 ± 0.063 | 0.823 ± 0.24 | 1.08 ± 0.35 | 0.934 ± 0.14 | 0.96 ± 0.073 | 1 ± 0.12 | 1.16 ± 0.18 | 1.48 ± 0.17 | 1.11 ± 0.059 | 1.05 ± 0.058
4 | HCC202 BREAST | 1.062 ± 0.0076 | 1.28 ± 0.2 | 1.16 ± 0.15 | 1.32 ± 0.44 | 1.27 ± 0.073 | 1.23 ± 0.031 | 0.991 ± 0.13 | 0.86 ± 0.28 | 1.17 ± 0.19 | 1.354 ± 0.0028 | 1.39 ± 0.86 | 1.05 ± 0.41 | 0.774 ± 0.33 | 0.88 ± 0.36 | 1.19 ± 0.05 | 1.123 ± 0.005
5 | HCC1395 BREAST | 1.07 ± 0.11 | 1.07 ± 0.015 | 1.14 ± 0.059 | 1.13 ± 0.021 | 1.08 ± 0.12 | 1.11 ± 0.13 | 1.146 ± 0.0049 | 1.19 ± 0.047 | 0.996 ± 0.018 | 1.09 ± 0.058 | 1.16 ± 0.12 | 1.12 ± 0.15 | 1.19 ± 0.13 | 1.1 ± 0.1 | 0.885 ± 0.14 | 0.969 ± 0.075
6 | HCC1806 BREAST | 1.12 ± 0.11 | 1.08 ± 0.17 | 1.19 ± 0.024 | 1.08 ± 0.021 | 1.19 ± 0.051 | 1.2 ± 0.11 | 1.05 ± 0.085 | 0.953 ± 0.12 | 0.958 ± 0.19 | 0.944 ± 0.041 | 1.17 ± 0.078 | 1.08 ± 0.017 | 0.887 ± 0.026 | 1.01 ± 0.096 | 0.9673 ± 0.0067 | 0.908 ± 0.066
7 | HCC1954 BREAST | 0.838 ± 0.082 | 1.01 ± 0.13 | 1.05 ± 0.088 | 1.13 ± 0.12 | 1.09 ± 0.23 | 1.12 ± 0.041 | 1.08 ± 0.086 | 1.02 ± 0.014 | 1.1 ± 0.09 | 1.1 ± 0.08 | 1.2 ± 0.11 | 1.19 ± 0.27 | 0.63 ± 0.2 | 0.682 ± 0.12 | 0.502 ± 0.072 | 0.674 ± 0.16
8 | HCT15 LARGE INTESTINE | 1.08 ± 0.027 | 1.12 ± 0.024 | 1.1 ± 0.054 | 1.1 ± 0.029 | 1.11 ± 0.026 | 1.1 ± 0.0051 | 1.11 ± 0.04 | 1.1 ± 0.036 | 1.03 ± 0.12 | 1.07 ± 0.024 | 1.05 ± 0.053 | 1.02 ± 0.081 | 1.05 ± 0.054 | 1.05 ± 0.061 | 1.02 ± 0.079 | 1.05 ± 0.069
9 | HELA CERVIX | 1.08 ± 0.068 | 1.07 ± 0.037 | 1.1 ± 0.032 | 1.03 ± 0.023 | 1.2 ± 0.048 | 1.2 ± 0.062 | 1.23 ± 0.074 | 1.15 ± 0.055 | 1.03 ± 0.029 | 1.05 ± 0.052 | 1.05 ± 0.072 | 0.974 ± 0.043 | 1.14 ± 0.15 | 1.15 ± 0.063 | 1.11 ± 0.057 | 1.12 ± 0.092
10 | HOS BONE | 1.03 ± 0.02 | 1.025 ± 0.0032 | 1.08 ± 0.029 | 1.02 ± 0.014 | 1.09 ± 0.019 | 1.095 ± 0.0072 | 1.08 ± 0.028 | 1.06 ± 0.025 | 1.021 ± 0.0061 | 1.01 ± 0.014 | 1.04 ± 0.023 | 1.014 ± 0.008 | 1.05 ± 0.014 | 1.03 ± 0.013 | 1.02 ± 0.018 | 0.974 ± 0.016
11 | HOSMNG BONE | 0.985 ± 0.035 | 0.99 ± 0.049 | 1 ± 0.077 | 0.973 ± 0.039 | 1.08 ± 0.042 | 1.1 ± 0.087 | 1.05 ± 0.096 | 1.08 ± 0.014 | 0.939 ± 0.079 | 0.932 ± 0.025 | 0.994 ± 0.035 | 0.947 ± 0.047 | 1.05 ± 0.12 | 0.963 ± 0.028 | 1.11 ± 0.061 | 1.01 ± 0.05
12 | HSSYII SYNOVIAL | 0.989 ± 0.03 | 0.972 ± 0.034 | 0.937 ± 0.013 | 0.974 ± 0.027 | 0.983 ± 0.068 | 0.966 ± 0.023 | 0.962 ± 0.048 | 0.957 ± 0.042 | 0.909 ± 0.02 | 0.985 ± 0.084 | 0.984 ± 0.022 | 0.98 ± 0.02 | 0.87 ± 0.069 | 0.83 ± 0.065 | 0.833 ± 0.015 | 0.839 ± 0.039
13 | HT1080 SOFT TISSUE | 1.01 ± 0.013 | 1.05 ± 0.015 | 1.03 ± 0.012 | 1.02 ± 0.017 | 1.01 ± 0.023 | 1.02 ± 0.02 | 1.04 ± 0.027 | 0.997 ± 0.019 | 1.07 ± 0.028 | 1.08 ± 0.024 | 1.053 ± 0.0085 | 1.05 ± 0.021 | 1.03 ± 0.025 | 1.04 ± 0.016 | 1.07 ± 0.019 | 1.16 ± 0.063
14 | HU09 BONE | 1.02 ± 0.086 | 1.11 ± 0.048 | 1.17 ± 0.18 | 1.12 ± 0.14 | 1.21 ± 0.086 | 1.18 ± 0.13 | 1.03 ± 0.089 | 1.05 ± 0.12 | 0.957 ± 0.092 | 1.03 ± 0.088 | 1.08 ± 0.075 | 1.1 ± 0.075 | 0.898 ± 0.085 | 0.929 ± 0.11 | 0.851 ± 0.026 | 0.925 ± 0.11
15 | HUO3N1 BONE | 1.03 ± 0.019 | 1.0307 ± 0.00058 | 1.07 ± 0.049 | 1.11 ± 0.025 | 1.07 ± 0.035 | 1.11 ± 0.029 | 1.02 ± 0.012 | 0.995 ± 0.046 | 1 ± 0.051 | 1.04 ± 0.075 | 1.08 ± 0.025 | 1.08 ± 0.054 | 1.001 ± 0.01 | 1.02 ± 0.025 | 0.897 ± 0.024 | 0.883 ± 0.017
16 | JIMT1 BREAST | 0.9997 ± 0.0033 | 0.965 ± 0.027 | 0.981 ± 0.02 | 0.962 ± 0.013 | 1.08 ± 0.047 | 1.08 ± 0.032 | 1.02 ± 0.042 | 0.929 ± 0.012 | 0.958 ± 0.039 | 0.941 ± 0.017 | 0.98 ± 0.033 | 0.96 ± 0.02 | 0.975 ± 0.038 | 0.956 ± 0.047 | 0.987 ± 0.037 | 0.992 ± 0.022
